From patent publication US20070237734A1, “ANTI-WRINKLE COSMETIC COMPOSITION” (L'OREAL, priority 2006, published 2007)

System: normal human fibroblasts
Assay: Dermo-decontracting effect on dermal equivalent model (collagen matrix inoculated with fibroblasts), spontaneous contraction
Format: cell-based
Conditions: for % contraction: test compound 10 μM, dermal equivalent surface area at 0, 4, 8 and 24 hours, with respect to the control
From the text: The principle of this test consists in studying the effect of the test product on a dermal equivalent model composed of a collagen matrix inoculated with normal human fibroblasts.
These conditions are intended to mimic in vitro the dermal contractile phenomena which occur during facial expressions. This is because, under these conditions, the cells spontaneously express tensile forces which induce retraction of the collagen gel. […] The measurement of this surface area makes it possible to evaluate the relaxing effects of the substances brought into contact beforehand with the dermal equivalent.
Two series of attached dermal equivalents comprising normal human fibroblasts are prepared: a control series without any treatment and a series treated with the test compound (10 μM). The experiment is repeated three times.
The dermal equivalents are prepared as described in Asselineau et al., Exp. Cell. Res., 1985, 159, 536-539; Models in Dermatology, 1987, vol. 3, pp. 1-7, in the following proportions:
The treated dermal equivalent differs from the control dermal equivalent in that 10 μM of the test compound are added thereto.
The collagen used is type I collagen (commercial solution). It is extracted from calf skin by acid hydrolysis and stored in an acidic medium at +4° C. It polymerizes naturally by reheating to 37° C. and by decreasing the degree of acidity. The collagen is dialysed beforehand against successive baths of water+acetic acid.
The protocol is as follows: the 1.76×MEM medium is introduced, in the presence of additives (1% glutamine, 1% non-essential amino acids, 1% sodium pyruvate, 1% fungizone and 1% penicillin/streptomycin), the foetal calf serum and the 0.1N NaOH solution, into a 50 ml centrifuge tube stored in crushed ice. The fibroblasts, isolated from human skin explants, are then added at the concentration of 1.5×10^5 cells per 1 ml of culture medium.
A volume/volume mixture of collagen in acetic acid at 1/1000 is then slowly added, against the wall of the tube, so as to observe the appearance of a whitish cloud.
The combined product is then carefully mixed and distributed in the wells of a 12-well culture plate (Costar type, reference 3512) in a proportion of 2 ml of mixture per well. The final cell concentration is […], with a final concentration of collagen of 1 mg/ml. The culture plate is then placed in an incubator at 37° C. with 5% CO2.
Once formed after polymerization of the collagen, the dermal equivalents are left adhered to the culture support for 3 days and then detached from the support so that the contraction can begin. These detached dermal equivalents are taken out of the incubator in order to take images for the purpose of measuring their surface area, this being for each point of the kinetics of contraction (0, 4, 8 and 24 hours). They are immediately placed back in the incubator between each measurement point.
The evaluation of the spontaneous contraction of the treated (with the test compound) and control (without test compound) dermal equivalents is carried out by measuring their surface area at the different times mentioned after the beginning of the spontaneous contraction.
For this, a digital image is acquired for each treated or untreated dermal equivalent by means of a camera (CCD camera-Iris Sony DXC-107P) and the surface area is subsequently calculated on each image by means of an image analysis system (Zeiss Axiovision 3.0). […]

| SMILES | % contraction [%] | reduce the contraction of the fibroblasts, on average over the duration of the experiment, with respect to the control (tested at 10 μM) [%] |
| --- | --- | --- |
| CCCCCCCCOC[C@H]1O[C@@H](n2cnc3c(N)ncnc32)[C@@H]2OC(C)(C)O[C@@H]21 [Compound E, 2′,3′-isopropylidene-5′-octyladenosine] | −26 |  |
| Nc1ncnc2c1ncn2[C@@H]1O[C@H](CO)[C@@H](O)[C@H]1O [Adenosine, reference compound] | −15 | 15 |
| CCOC[C@H]1O[C@@H](n2cnc3c(N)ncnc32)[C@@H]2OC(C)(C)O[C@@H]21 [Compound D, 2′,3′-isopropylidene-5′-ethyladenosine] | −21 |  |
| CC(=O)OC[C@H]1O[C@@H](n2cnc3c(N)ncnc32)[C@@H]2OC(C)(C)O[C@@H]21 [Compound G, 2′,3′-isopropylidene-5′-acetyladenosine] | −30 |  |
